The values that follow come from article PMC5354814, “In silico and in vitro drug screening identifies new therapeutic approaches for Ewing sarcoma” (Oncotarget, 2016).

Where only a bound is given, the exact number is not on record here.

One assay relates to A673. The assay can be described thus: Hits validation, dose-response cell proliferation (CellTiter-Glo). The class given is cell-based. To be noted: Homo sapiens, A673; 12-point dose-response 50 μmol/L to 1 nmol/L, mean ± SD. Summed up: (§1)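 Dose-response proliferation test: drugs spanning 1 nmol/L–50 μmol/L were added one day after seeding 750–1,500 cells per well. CellTiter-Glo signal gave IC50s.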

Another assay concerns CHLA-258. Described as above. The class given is cell-based. To be noted: 12-point dose-response 50 μmol/L to 1 nmol/L, mean ± SD. Summed up:
as §1

The subject of a further assay is COG-E-352. The assay is described as above. Conditions: 12-point dose-response 50 μmol/L to 1 nmol/L, mean ± SD. It is filed as cell-based. The method, boiled down:
as §1

The test system of the next assay is Hs 822.T. The assay is described as above. The class given is cell-based. To be noted: control cell line, 12-point dose-response, mean ± SD. The method, boiled down:
as §1

For a further assay, the system named is Hs 863.T. The description is as above. It is filed as cell-based. To be noted: control cell line, 12-point dose-response, mean ± SD. Summed up:
as §1

In a further assay the test system is RD-ES. Described as above. To be noted: RD-ES; 12-point dose-response 50 μmol/L to 1 nmol/L, mean ± SD. It is filed as cell-based. Summed up:
as §1

For a further assay, the system named is SK-ES-1. The assay is described as above. The class given is cell-based. To be noted: Homo sapiens, SK-ES1; 12-point dose-response 50 μmol/L to 1 nmol/L, mean ± SD. The method, boiled down: as §1
In a further assay the test system is TC-71. The description is as above. It is filed as cell-based. To be noted: TC-71; 12-point dose-response 50 μmol/L to 1 nmol/L, mean ± SD. The method, boiled down:
as §1

A further assay concerns Hs 919.T. The assay is described as above. It is filed as cell-based. Conditions: control cell line, 12-point dose-response, mean ± SD. Summed up:
as §1

In a further assay the test system is EWS cell lines. The assay can be described thus: Combination study (dose matrix, CellTiter-Glo, combination index). It is filed as cell-based. Here is the method:
Next, the predicted and library screened drugs were extensively validated. The in vitro activities of each drug hit were evaluated in an expanded panel of EWS cell lines (either the EWS/FLI1 or the EWS/ERG fusion) (Table 1) and confirmed employing 12-point dose-response curves ranging from 50 μmol/L to 1 nmol/L, with triplicate sampling (Table 3). As mentioned above, one of the most notable drug hits discovered through both the in silico and in vitro drug screening approaches was auranofin. Based on this finding, we subsequently screened auranofin against six other marketed or investigational anticancer drug hits (carfilzomib, elesclomol, bortezomib, geldanamycin, AUY922, and ganetespib, Supplementary Figures S1–S5 and Figure 2). These drugs were chosen based on their known mechanisms and safety profiles. […] We evaluated the anti-proliferation effect in combination treatments using the EWS and control cell lines. […]
For hits validation and combination study, cells were harvested and aliquoted into 384-well plates at concentrations of 750–1,500 cells per well in a total of 20 μl/well using a Matrix Wellmate (Thermo Scientific). […] Cell proliferation was evaluated using Cell-Titer Glo® reagents (Promega). IC50 values were determined for each drug using SigmaPlot (Systat Software). The combination index values were calculated using SigmaPlot (Systat Software) and CompuSyn.

Assay [1] has as its system cancer cells with EWS-FLI1 mutations. Details: method as in GDSC database, cancerrxgene.org. To be noted: ref GDSC database, cancerrxgene.org; cited from earlier work.
A further assay concerns A673 cells. In words: In vivo xenograft mouse model. To be noted: auranofin 12 mg/kg i.p. 5 days per week, ganetespib 150 mg/kg i.v. once weekly; p < 0.05. How it is done:
To assess the antitumor activity of auranofin (using an alternative delivery approach), ganetespib and the combination treatments in vivo, we generated a xenograft nude mouse model by injecting A673 cells intramuscularly proximal to the tibia. Based on the dose tolerance and pharmacokinetic studies described above, we administered auranofin at a tolerable daily i.p. dose that achieved adequate systemic drug exposure. Auranofin was administered with a dose of 12 mg/kg through an i.p. injection once a day for 5 days per week, and ganetespib was administered with a dose of 150 mg/kg through an i.v. injection once weekly. Mice that grew palpable tumors were randomized into four groups: vehicle, auranofin-only, ganetespib-only, and the combination.
The guidelines adopted by the Institutional Animal Care and Use Committee of the University of Kansas Medical Center (KUMC-IACUC) were followed in all performed procedures. All experimental protocols were approved by KUMC-IACUC. Homozygous athymic nude (Foxn1nu/Foxn1nu) female mice at the age of 4-weeks were purchased from Jackson Laboratories. After one week, one million A673 cells in PBS (pH = 7.3) were injected into mice. The cells were injected intramuscularly proximal to the tibia and treatment started after 15 days of inoculation. Mice developing palpable tumors were divided into 4 arms and treated for up to 18 days: vehicle (20% Cremophor RH40 and 80% D5W iv and 0.5% HPMC K4M ip), auranofin (12 mg/kg i.p. injection 5 days per week), ganetespib (150 mg/kg i.v. injection once weekly), as well as auranofin and ganetespib combined. Mice were evaluated for overall health and weighed every week. When tumor size impeded mobility, mice were sacrificed and necropsies were performed. Tumors were then dissected, measured and processed for analysis. The liver, kidneys, and spleen were also snap frozen in liquid nitrogen or fixed in 10% neutral buffered formalin and paraffin embedded for toxicity studies. Tissues were then subjected to hematoxylin and eosin (H&E) staining and immunohistochemical staining. […]

Broadly, the IC50 is the point on the concentration scale where inhibition reaches its midpoint.

For `CCNC(=O)c1noc(-c2cc(C(C)C)c(O)cc2O)c1-c1ccc(CN2CCOCC2)cc1` [AUY922], the IC50 was 20 ± 2 nM in the assay with A673; under 3 nM in the assay with CHLA-258; under 3 nM in the assay with COG-E-352; over 20000 nM in the assay with Hs 822.T.; over 20000 nM in the assay with Hs 863.T.; 9 ± 1 nM in the assay on RD-ES. Also, the IC50 in the assay on SK-ES-1 was 30 ± 2 nM; with TC-71, under 3 nM; in the assay with Hs 919.T., over 20000 nM. Besides, in the assay on EWS cell lines, the “synergy in combination with auranofin” value is listed as “highly synergistic”.

With `CN(NC(=O)CC(=O)NN(C)C(=S)c1ccccc1)C(=S)c1ccccc1` [Elesclomol], the IC50 was 6 ± 6 nM in the assay with A673; under 3 nM in the assay with CHLA-258; 7 ± 2 nM with COG-E-352; over 20000 nM with Hs 822.T.; over 20000 nM with Hs 863.T.; 50 ± 60 nM in the assay on RD-ES. In addition, the figures for the IC50 in the assay with SK-ES-1, with TC-71 and in the assay with Hs 919.T. were 10 ± 1 nM, under 3 nM and over 20000 nM, respectively. The “sensitivity of cancer cells with EWS-FLI1 mutations compared with wild-type” value in [1] was “preferentially sensitive”.

Consider `CC(C)c1cc(-c2n[nH]c(=O)n2-c2ccc3c(ccn3C)c2)c(O)cc1O` [ganetespib], for which the IC50 with A673 is 40 ± 10 nM; in the assay on CHLA-258, under 3 nM; with COG-E-352, under 3 nM; in the assay with Hs 822.T., over 20000 nM; in the assay with Hs 863.T., over 20000 nM; in the assay with RD-ES, 20 ± 20 nM. The IC50 with SK-ES-1 is 10 ± 1 nM; in the assay with TC-71, under 3 nM; with Hs 919.T. it was over 20000 nM. Besides, the “synergy in combination with auranofin” value in the assay on EWS cell lines is recorded as “highly synergistic”. Also, the “survival rate versus control group” value in the assay on A673 cells is “significantly increased the survival rate”.
